# Measurements as given in ChEMBL document CHEMBL5523764, “Discovery of NO Donor-Aurovertin Hybrids as Dual Ferroptosis and Apoptosis Inducers for Treating Triple Negative Breast Cancer” (J Med Chem, 2024).
# The source made the active and inactive calls. The calls are words filed in the database; no cut-off is given here.
# Key:
# [1] = Cytotoxicity against human MCF-10A cells assessed as reduction in cell viability incubated for 72 hrs by MTT assay; format: toxicity, cell-based
# [2] = Selectivity index, ratio of IC50 for cytotoxicity against human MCF-10A cells to IC50 for antiproliferative activity against human MDA-MB-231 cells; format: toxicity, cell-based; settings: MCF-10A cells versus MDA-MB-231 cells, read-out: Ratio IC50
# MDA-MB-231 [3] = test: Antiproliferative activity against human MDA-MB-231 cells assessed as reduction in cell viability incubated for 72 hrs by MTT assay; format: functional, cell-based; settings: MDA-MB-231, 72 h
# 4T1 = test: Antiproliferative activity against mouse 4T1 cells assessed as reduction in cell viability incubated for 72 hrs by MTT assay; format: functional, cell-based; settings: 4T1, 72 h
# MDA-MB-231 [4] = test: Induction of NO release in human MDA-MB-231 cells assessed NO concentration by Griess reagent based assay; format: functional
# [5] = Toxicity in ip dosed mouse assessed as lethal dose; format: organism-based; settings: in vivo
# [6] = Toxicity in ip dosed mouse assessed as appearance of loose gray stool; format: organism-based; settings: in vivo
# [7] = Toxicity in mouse assessed as animal death at >6 mg/kg, ip; format: organism-based; settings: in vivo
# [8] = Toxicity in ip dosed mouse assessed as body weight loss; format: organism-based; settings: in vivo
# [9] = Toxicity in ip dosed mouse assessed as appearance of messy furs; format: organism-based; settings: in vivo
# MDA-MB-231 [10] = test: Antitumor activity against human MDA-MB-231 cells xenografted in nude mouse assessed as reduction in tumor weight at 5 mg/kg, ip administered for 30 days; format: functional, organism-based; settings: time 30.0 day
# MDA-MB-231 [11] = test: Induction of ferroptosis in human MDA-MB-231 cells xenografted in nude mouse assessed as reduction in GPX4 level at 5 mg/kg, ip administered for 30 days by immunohistochemistry analysis; format: functional, organism-based; settings: time 30.0 day
# MDA-MB-231 [12] = test: Antitumor activity against human MDA-MB-231 cells xenografted in nude mouse assessed as reduction in tumor size at 5 mg/kg, ip administered for 30 days; format: functional, organism-based; settings: time 30.0 day
IC50 (MDA-MB-231 [3]),IC50 (4T1),SMILES,IC50 at 72 h [1],selectivity ratio [2],Activity (MDA-MB-231 [4]),other results
4.59 µM,7.86 µM,CC[C@H]1O[C@@]2(C)[C@H](OC(C)=O)[C@@]1(C)O[C@@H](/C=C/C=C/C=C/c1oc(=O)cc(OC)c1C)[C@@H]2OC(=O)CCCC(=O)OCc1c(-c2ccc(Cl)cc2)no[n+]1[O-],> 50 µM,> 10,2.42 µM,
0.6 µM,1.12 µM,CC[C@H]1O[C@@]2(C)[C@H](OC(C)=O)[C@@]1(C)O[C@@H](/C=C/C=C/C=C/c1oc(=O)cc(OC)c1C)[C@H]2OC(=O)CCC(=O)OCCCCCOc1no[n+]([O-])c1S(=O)(=O)c1ccccc1,> 50 µM,> 83,4.6 µM,
5.88 µM,> 10 µM,"CC[C@H]1O[C@]2(C)C(OC(=O)CCC(=O)OCc3ccc(Oc4no[n+]([O-])c4S(=O)(=O)c4ccccc4)cc3)[C@H](/C=C/C=C/C=C/c3oc(=O)cc(OC)c3C)O[C@]1(C)[C@H]2OC(C)=O (single isomer, unassigned)",,,2.44 µM,
> 10 µM,,"CC[C@H]1O[C@]2(C)C(OC(=O)CCCC(=O)OCc3c(CSCCC(=O)O)no[n+]3[O-])[C@H](/C=C/C=C/C=C/c3oc(=O)cc(OC)c3C)O[C@]1(C)[C@H]2OC(C)=O (single isomer, unassigned)",,,1.89 µM,
9.93 µM,,CC[C@H]1O[C@@]2(C)[C@H](OC(C)=O)[C@@]1(C)O[C@@H](/C=C/C=C/C=C/c1oc(=O)cc(OC)c1C)[C@@H]2OC(=O)CCCC(=O)OCc1c(-c2ccccc2)no[n+]1[O-],,,1.93 µM,
1.09 µM,2.14 µM,O=S(=O)(c1ccccc1)c1no[n+]([O-])c1S(=O)(=O)c1ccccc1,3.8 µM,3.1,8.06 µM,
4.75 µM,4.56 µM,CC[C@H]1O[C@@]2(C)[C@H](OC(C)=O)[C@@]1(C)O[C@@H](/C=C/C=C/C=C/c1oc(=O)cc(OC)c1C)[C@@H]2OC(=O)CCCC(=O)OCc1c(-c2ccc(Br)cc2)no[n+]1[O-],> 50 µM,> 10,2.65 µM,
7.24 µM,> 10 µM,CC[C@H]1O[C@@]2(C)[C@H](OC(C)=O)[C@@]1(C)O[C@@H](/C=C/C=C/C=C/c1oc(=O)cc(OC)c1C)[C@@H]2OC(=O)CCCC(=O)OCc1c(-c2ccc(F)cc2)no[n+]1[O-],> 50 µM,> 7,2.27 µM,
> 10 µM,,CC[C@H]1O[C@@]2(C)[C@H](OC(C)=O)[C@@]1(C)O[C@@H](/C=C/C=C/C=C/c1oc(=O)cc(OC)c1C)[C@@H]2OC(=O)CCCC(=O)OCc1c(CSC[C@@H](NC(C)=O)C(=O)O)no[n+]1[O-],,,1.71 µM,
> 10 µM,,"CC[C@H]1O[C@]2(C)C(OC(=O)CCCC(=O)OCc3c(CSCCCO)no[n+]3[O-])[C@H](/C=C/C=C/C=C/c3oc(=O)cc(OC)c3C)O[C@]1(C)[C@H]2OC(C)=O (single isomer, unassigned)",,,2.02 µM,
,,N=C(N)NCCC[C@H](N)C(=O)O [ARGININE],,,1.31 µM,
> 10 µM,,"CC[C@H]1O[C@]2(C)C(OC(=O)CCC(=O)OCc3cccc(Oc4no[n+]([O-])c4S(=O)(=O)c4ccccc4)c3)[C@H](/C=C/C=C/C=C/c3oc(=O)cc(OC)c3C)O[C@]1(C)[C@H]2OC(C)=O (single isomer, unassigned)",,,2.15 µM,
3.28 µM,5.56 µM,CC[C@H]1O[C@@]2(C)[C@H](OC(C)=O)[C@@]1(C)O[C@@H](/C=C/C=C/C=C/c1oc(=O)cc(OC)c1C)[C@H]2OC(=O)CCC(=O)OCCc1ccc(Oc2no[n+]([O-])c2S(=O)(=O)c2ccccc2)cc1,> 50 µM,> 15,,
0.99 µM,2.14 µM,CC[C@H]1O[C@@]2(C)[C@H](OC(C)=O)[C@@]1(C)O[C@@H](/C=C/C=C/C=C/c1oc(=O)cc(OC)c1C)[C@@H]2OC(=O)CCCCCOc1no[n+]([O-])c1S(=O)(=O)c1ccccc1,> 50 µM,> 50,,
,,COc1cccc2c1C(=O)c1c(O)c3c(c(O)c1C2=O)C[C@@](O)(C(=O)CO)C[C@@H]3O[C@H]1C[C@H](N)[C@@H](O)[C@H](C)O1,,,,Activity (MDA-MB-231 [10]): Active; Activity (MDA-MB-231 [11]): inactive; Activity (MDA-MB-231 [12]): Active
0.42 µM,0.55 µM,CC[C@H]1O[C@@]2(C)[C@H](OC(C)=O)[C@@]1(C)O[C@@H](/C=C/C=C/C=C/c1oc(=O)cc(OC)c1C)[C@H]2OC(=O)CCC(=O)OCCCCOc1no[n+]([O-])c1S(=O)(=O)c1ccccc1,> 50 µM,> 119,5.23 µM,
0.45 µM,0.72 µM,CC[C@H]1O[C@@]2(C)[C@H](OC(C)=O)[C@@]1(C)O[C@@H](/C=C/C=C/C=C/c1oc(=O)cc(OC)c1C)[C@H]2OC(=O)CCC(=O)OCCCCCCOc1no[n+]([O-])c1S(=O)(=O)c1ccccc1,> 50 µM,> 111,4.92 µM,
> 10 µM,,CC[C@H]1O[C@@]2(C)[C@H](OC(C)=O)[C@@]1(C)O[C@@H](/C=C/C=C/C=C/c1oc(=O)cc(OC)c1C)[C@@H]2OC(=O)CCCC(=O)OCc1c(CSCC(=O)O)no[n+]1[O-],,,1.76 µM,

SMILES,IC50 (MDA-MB-231 [3]),IC50 (4T1),IC50 at 72 h [1],selectivity ratio [2],Activity (MDA-MB-231 [4]),other results
CC[C@H]1O[C@@]2(C)[C@H](OC(C)=O)[C@@]1(C)O[C@@H](/C=C/C=C/C=C/c1oc(=O)cc(OC)c1C)[C@@H]2O,2.17 µM,3.34 µM,> 50 µM,> 23,,LD50 [5]: 12 mg/kg; Activity [6]: Toxic; Activity [7]: Toxic; Activity [8]: Toxic; Activity [9]: Toxic
